According to patent EP4631941A1 (Jiangsu Tasly Diyi Pharmaceutical Co., Ltd., priority 2022, dated 2024):
Counter-ions that a name gives are not always drawn.

Target: T1, DYRK2 kinase (Homo sapiens, UniProt Q92630)
T1 sequence (Q92630 1-601): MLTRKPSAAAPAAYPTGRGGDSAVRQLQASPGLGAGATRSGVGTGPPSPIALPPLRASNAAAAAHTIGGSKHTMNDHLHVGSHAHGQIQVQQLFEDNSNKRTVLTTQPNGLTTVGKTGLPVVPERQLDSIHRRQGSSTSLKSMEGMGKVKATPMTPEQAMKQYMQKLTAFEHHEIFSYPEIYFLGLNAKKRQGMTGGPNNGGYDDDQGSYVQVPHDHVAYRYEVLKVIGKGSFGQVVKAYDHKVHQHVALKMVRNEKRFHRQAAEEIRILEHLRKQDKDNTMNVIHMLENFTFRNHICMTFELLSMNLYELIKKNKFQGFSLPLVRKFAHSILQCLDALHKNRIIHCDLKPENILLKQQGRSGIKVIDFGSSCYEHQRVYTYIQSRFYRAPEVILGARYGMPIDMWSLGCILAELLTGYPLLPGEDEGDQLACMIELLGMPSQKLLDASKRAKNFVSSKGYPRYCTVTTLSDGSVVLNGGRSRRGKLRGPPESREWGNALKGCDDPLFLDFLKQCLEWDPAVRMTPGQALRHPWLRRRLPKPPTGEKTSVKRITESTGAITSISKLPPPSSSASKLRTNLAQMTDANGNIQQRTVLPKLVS
Experiment: DYRK2 kinase activity analysis assay (33P-ATP, DYRKtide substrate, P81 filter paper)
Format: biochemical
Settings: 2 hours at room temperature, read-out: IC50

IC50	SMILES
535 nM	CC(C)(C)OC(=O)N1CCN(C(=O)c2cnc(Nc3ncc(F)c(-c4ccc5scnc5c4)n3)nc2)CC1 [Example 22, tert-butyl 4-(2-((4-(benzothiazole-5-yl)-5-fluoropyrimidine-2-yl)amino)pyrimidine-5-carbonyl)piperazine-1-c arboxylate]
22 nM	CCN1CCN(C(=O)c2ccc(Nc3ncc(F)c(-c4ccc5scnc5c4)n3)nc2)CC1 [Example 14, (6-((4-(benzothiazole-5-yl)-5-fluoropyrimidine-2-yl)amino)pyridine-3-yl)(4-ethylpiperazine-1-yl)ketone]
779 nM	COc1cnc(Nc2ccc(CN3CCNCC3)cn2)nc1-c1ccc2scnc2c1 [Example 7, 4-(benzothiazole-5-yl)-5-methoxy-N-(5-(piperazine-1-ylmethyl)pyridine-2-yl)pyrimidine-2-amine hydrochloride]
13 nM	CC(C)N1CCN(C(=O)c2ccc(Nc3ncc(F)c(-c4ccc5sc(N(C)C)nc5c4)n3)cn2)CC1 [Example 30, (5-((4-(2-(dimethylamino)benzothiazole-5-yl)-5-fluoropyrimidine-2-yl)amino)pyridine-2-yl)(4-isopropylpiperazine-1-yl)ketone]
498 nM	CCN1CCN(C(=O)c2ccc(Nc3ncc(C)c(-c4ccc5scnc5c4)n3)nc2)CC1 [Example 3, (6-((4-(benzothiazole-5-yl)-5-methylpyrimidine-2-yl)amino)pyridine-3-yl)(4-ethylpiperazine-1-yl)ketone]
67 nM	CCN1CCN(C(=O)c2ccc(Nc3nccc(-c4ccc5scnc5c4)n3)nc2)CC1 [Example 9, (6-((4-(benzothiazole-5-yl)pyrimidine-2-yl)amino)pyridine-3-yl)(4-ethylpiperazine-1-yl)ketone]
216 nM	Fc1cnc(Nc2ccc(CN3CCNCC3)cn2)nc1-c1ccc2scnc2c1 [Example 13, 4-(benzothiazole-5-yl)-5-fluoro-N-(5-(piperazine-1-methylene)pyridine-2-yl)pyrimidine-2-amine hydrochloride]
636 nM	c1cc(-c2ccc3scnc3c2)nc(Nc2ccc(CN3CCNCC3)cn2)n1 [Example 8, 4-(benzothiazole-5-yl)-N-(5-(piperazine-1-methylene)pyridine-2-yl)pyrimidine-2-amine hydrochloride]
70 nM	CC(C)(C)OC(=O)N1CCN(C(=O)c2ccc(Nc3ncc(F)c(-c4ccc5scnc5c4)n3)nc2)CC1 [Example 19, tert-butyl 4-(6-((4-(benzothiazole-5-yl)-5-fluoropyrimidine-2-yl)amino)nicotinoyl)piperazine-1-carboxylate]
190 nM	O=C(c1ccc(Nc2nccc(-c3ccc4scnc4c3)n2)nc1)N1CCNCC1 [Example 11, (6-((4-(benzothiazole-5-yl)pyrimidine-2-yl)amino)pyridine-3-yl)(piperazine-1-yl)ketone hydrochloride]
1050 nM	CCN1CCN(C(=O)c2cnc(Nc3ncc(F)c(-c4ccc5scnc5c4)n3)nc2)CC1 [Example 21, (2-((4-(benzothiazole-5-yl)-5-fluoropyrimidine-2-yl)amino)pyrimidine-5-yl)(4-ethylpiperazine-1-yl)ketone]
695 nM	O=C(c1cnc(Nc2ncc(F)c(-c3ccc4scnc4c3)n2)nc1)N1CCNCC1 [Example 23, (2-((4-(benzothiazole-5-yl)-5-fluoropyrimidine-2-yl)amino)pyrimidine-5-yl)(piperazine-1-yl)k etone hydrochloride]
15 nM	CCN1CCN(C(=O)c2ccc(Nc3ncc(F)c(-c4ccc5scnc5c4)n3)cn2)CC1 [Example 24, (5-((4-(benzothiazole-5-yl)-5-fluoropyrimidine-2-yl)amino)pyridine-2-yl)(4-ethylpiperazine-1-yl)ketone]
45 nM	CCN(CC)c1nc2cc(-c3nc(Nc4ccc(C(=O)N5CCN(C(C)C)CC5)nc4)ncc3F)ccc2s1 [Example 34, (5-((4-(2-(diethylamino)benzothiazole-5-yl)-5-fluoropyrimidine-2-yl)amino)pyridine-2-yl)(4-isopropylpiperazine-1-yl)ketone]
56 nM	O=C(c1ccc(Nc2ncc(F)c(-c3ccc4scnc4c3)n2)nc1)N1CCN(c2ccccc2)CC1 [Example 17, (6-((4-(benzothiazole-5-yl)-5-fluoropyrimidine-2-yl)amino)pyridine-3-yl)(4-phenylpiperazine-1-yl)ketone]
268 nM	Cc1cnc(Nc2ccc(C(=O)N3CCN(C(=O)OC(C)(C)C)CC3)cn2)nc1-c1ccc2scnc2c1 [Example 4, tert-butyl 4-(6-((4-(benzothiazole-5-yl)-5-methylpyrimidine-2-yl)amino)nicotinoyl)piperazine-1-carboxylate]
4 nM	O=C(c1ccc(Nc2ncc(F)c(-c3ccc4scnc4c3)n2)cn1)N1CCNCC1 [Example 26, (5-((4-(benzothiazole-5-yl)-5-fluoropyrimidine-2-yl)amino)pyridine-2-yl)(piperazine-1-yl)ketone hydrochloride]
99 nM	CC(C)(C)OC(=O)N1CCN(C(=O)c2ccc(Nc3nccc(-c4ccc5scnc5c4)n3)nc2)CC1 [Example 10, tert-butyl 4-(6-((4-(benzothiazole-5-yl)pyrimidine-2-yl)amino)nicotinoyl)piperazine-1-carboxylate]
91 nM	CCOC(=O)N1CCN(C(=O)c2ccc(Nc3ncc(F)c(-c4ccc5nc(N(C)C)sc5c4)n3)nc2)CC1 [Example 38, ethyl 4-(6-((4-(2-(dimethylamino)benzothiazole-6-yl)-5-fluoropyrimidine-2-yl)amino)nicotinoyl)piperazine-1-carboxylate]
9 nM	CN(C)c1nc2cc(-c3nc(Nc4ccc(C(=O)N5CCNCC5)nc4)ncc3F)ccc2s1 [Example 32, (5-((4-(2-(dimethylamino)benzothiazole-5-yl)-5-fluoropyrimidine-2-yl)amino)pyridine-2-yl)(piperazine-1-yl)ketone hydrochloride]
29 nM	CCN1CCN(C(=O)c2ccc(Nc3ncc(F)c(-c4ccc5sc(N(CC)CC)nc5c4)n3)cn2)CC1 [Example 33, (5-((4-(2-(diethylamino)benzothiazole-5-yl)-5-fluoropyrimidine-2-yl)amino)pyridine-2-yl)(4-ethylpiperazine-1-yl)ketone]
18 nM	CN(C)c1nc2cc(-c3nc(Nc4ccc(C(=O)N5CCNCC5)cn4)ncc3F)ccc2s1 [Example 27, (6-((4-(2-(dimethylamino)benzothiazole-5-yl)-5-fluoropyrimidine-2-yl)amino)pyridine-3-yl)(piperazine-1-yl)ketone hydrochloride]
357 nM	Cc1cnc(Nc2ccc(C(=O)N3CCNCC3)cn2)nc1-c1ccc2scnc2c1 [Example 5, (6-((4-(benzothiazole-5-yl)-5-methylpyrimidine-2-yl)amino)pyridine-3-yl)(piperazine-1-yl)ketone hydrochloride]
11 nM	CCN1CCN(C(=O)c2ccc(Nc3ncc(F)c(-c4ccc5sc(N(C)C)nc5c4)n3)cn2)CC1 [Example 29, (5-((4-(2-(dimethylamino)benzothiazole-5-yl)-5-fluoropyrimidine-2-yl)amino)pyridine-2-yl)(4-ethylpiperazine-1-yl)ketone]
16 nM	CC(C)(C)OC(=O)N1CCN(c2ccc(Nc3ncc(F)c(-c4ccc5scnc5c4)n3)cn2)CC1 [Example 25, tert-butyl 4-(5-((4-(benzothiazole-5-yl)-5-fluoropyrimidine-2-yl)amino)pyridine-2-yl)piperazine-1-carboxylate]
35 nM	CCN(CC)c1nc2cc(-c3nc(Nc4ccc(C(=O)N5CCNCC5)cn4)ncc3F)ccc2s1 [Example 28, (6-((4-(2-(diethylamino)benzothiazole-5-yl)-5-fluoropyrimidine-2-yl)amino)pyridine-3-yl)(piperazine-1-yl)ketone hydrochloride]

SMILES	IC50
CC(=O)N1CCN(C(=O)c2ccc(Nc3ncc(F)c(-c4ccc5scnc5c4)n3)nc2)CC1 [Example 15, 1-(4-(6-((4-(benzothiazole-5-yl)-5-fluoropyrimidine-2-yl)amino)nicotinoyl)piperazine-1-yl)ethyl-1-one]	28 nM
Cc1cnc(Nc2ccc(CN3CCNCC3)cn2)nc1-c1ccc2scnc2c1 [Example 2, hydrochloride]	1420 nM
CCN1CCN(Cc2ccc(Nc3ncc(F)c(-c4ccc5scnc5c4)n3)nc2)CC1 [Example 12]	430 nM

Same assay, conditions: IC50 (nM), 2 hours at room temperature

SMILES	IC50
CN(C)c1nc2cc(-c3nc(Nc4ccc(C(=O)N5CCN(C(=O)OC(C)(C)C)CC5)nc4)ncc3F)ccc2s1 [Example 31]	590 nM
CN(C)c1nc2ccc(-c3nc(Nc4ccc(C(=O)N5CCN(c6ccccc6)CC5)cn4)ncc3F)cc2s1 [Example 37, (6-((4-(2-(dimethylamino)benzothiazole-6-yl)-5-fluoropyrimidine-2-yl)amino)pyridine-3-yl)(4 - arylpiperazine-1-yl)ketone]	683 nM
CC(=O)N1CCN(C(=O)c2ccc(Nc3ncc(F)c(-c4ccc5nc(N(C)C)sc5c4)n3)nc2)CC1 [Example 35, 1-(4-(6-((4-(2-(dimethylamino)benzothiazole-6-yl)-5-fluoropyrimidine-2-yl)amino)nicotinoyl)piperazine-1-yl)ethyl-1-one]	22 nM
